Laboratory results published in the NIST ThermoML archive (doi:10.1021/je034087q).
± gives the expanded uncertainty stated by the source.

Experiment: xn = mol fraction of the nth substance listed
Conditions: 323.15 K

CCCCC [pentane] + O=C=O
Conditions	mass density [kg/m3]
9400 kPa, Fluid (supercritical or subcritical phases), x2 = 0.939	522 ± 3
9410 kPa, Fluid (supercritical or subcritical phases), x2 = 0.916	590 ± 4
9440 kPa, Fluid (supercritical or subcritical phases), x2 = 0.87	630 ± 4
9480 kPa, Fluid (supercritical or subcritical phases), x2 = 0.901	601 ± 4
9510 kPa, Fluid (supercritical or subcritical phases), x2 = 0.939	534 ± 3
9550 kPa, Fluid (supercritical or subcritical phases), x2 = 0.791	688 ± 4
9560 kPa, Fluid (supercritical or subcritical phases), x2 = 0.671	726 ± 5
9600 kPa, Fluid (supercritical or subcritical phases), x2 = 0.901	607 ± 4
9630 kPa, Fluid (supercritical or subcritical phases), x2 = 0.916	603 ± 4
9630 kPa, Fluid (supercritical or subcritical phases), x2 = 0.939	545 ± 3
9670 kPa, Fluid (supercritical or subcritical phases), x2 = 0.87	638 ± 4
9740 kPa, Fluid (supercritical or subcritical phases), x2 = 0.214	631 ± 4
9740 kPa, Fluid (supercritical or subcritical phases), x2 = 0.901	613 ± 4
9790 kPa, Fluid (supercritical or subcritical phases), x2 = 0.939	558 ± 4
9920 kPa, Fluid (supercritical or subcritical phases), x2 = 0.901	619 ± 4
9940 kPa, Fluid (supercritical or subcritical phases), x2 = 0.916	615 ± 4
9970 kPa, Fluid (supercritical or subcritical phases), x2 = 0.939	572 ± 4
10000 kPa, Fluid (supercritical or subcritical phases), x2 = 0.901	622 ± 4
10010 kPa, Fluid (supercritical or subcritical phases), x2 = 0.87	645 ± 4
10080 kPa, Fluid (supercritical or subcritical phases), x2 = 0.901	626 ± 4
10160 kPa, Fluid (supercritical or subcritical phases), x2 = 0.901	628 ± 4
10170 kPa, Fluid (supercritical or subcritical phases), x2 = 0.939	586 ± 4
10240 kPa, Fluid (supercritical or subcritical phases), x2 = 0.36	651 ± 4
10270 kPa, Fluid (supercritical or subcritical phases), x2 = 0.901	633 ± 4
10290 kPa, Fluid (supercritical or subcritical phases), x2 = 0.791	697 ± 4
10300 kPa, Fluid (supercritical or subcritical phases), x2 = 0.916	628 ± 4
10420 kPa, Fluid (supercritical or subcritical phases), x2 = 0.87	654 ± 4
10420 kPa, Fluid (supercritical or subcritical phases), x2 = 0.901	637 ± 4
10440 kPa, Fluid (supercritical or subcritical phases), x2 = 0.939	600 ± 4
10620 kPa, Fluid (supercritical or subcritical phases), x2 = 0.901	642 ± 4
10710 kPa, Fluid (supercritical or subcritical phases), x2 = 0.671	734 ± 5
10730 kPa, Fluid (supercritical or subcritical phases), x2 = 0.916	642 ± 4
10760 kPa, Fluid (supercritical or subcritical phases), x2 = 0.901	647 ± 4
10790 kPa, Fluid (supercritical or subcritical phases), x2 = 0.939	616 ± 4
10850 kPa, Fluid (supercritical or subcritical phases), x2 = 0.87	661 ± 4
10950 kPa, Fluid (supercritical or subcritical phases), x2 = 0.901	652 ± 4
11040 kPa, Fluid (supercritical or subcritical phases), x2 = 0.791	703 ± 4
11060 kPa, Fluid (supercritical or subcritical phases), x2 = 0.214	634 ± 4
11220 kPa, Fluid (supercritical or subcritical phases), x2 = 0.901	656 ± 4
11230 kPa, Fluid (supercritical or subcritical phases), x2 = 0.36	654 ± 4
11250 kPa, Fluid (supercritical or subcritical phases), x2 = 0.939	635 ± 4
11260 kPa, Fluid (supercritical or subcritical phases), x2 = 0.916	657 ± 4
11320 kPa, Fluid (supercritical or subcritical phases), x2 = 0.939	639 ± 4
11440 kPa, Fluid (supercritical or subcritical phases), x2 = 0.901	661 ± 4
11450 kPa, Fluid (supercritical or subcritical phases), x2 = 0.87	670 ± 4
11610 kPa, Fluid (supercritical or subcritical phases), x2 = 0.901	666 ± 4
11890 kPa, Fluid (supercritical or subcritical phases), x2 = 0.901	672 ± 4
11910 kPa, Fluid (supercritical or subcritical phases), x2 = 0.791	713 ± 4
11930 kPa, Fluid (supercritical or subcritical phases), x2 = 0.916	672 ± 4
11970 kPa, Fluid (supercritical or subcritical phases), x2 = 0.87	678 ± 4
11980 kPa, Fluid (supercritical or subcritical phases), x2 = 0.671	740 ± 5
12080 kPa, Fluid (supercritical or subcritical phases), x2 = 0.901	675 ± 4
12440 kPa, Fluid (supercritical or subcritical phases), x2 = 0.901	681 ± 4
12460 kPa, Fluid (supercritical or subcritical phases), x2 = 0.36	656 ± 4
12560 kPa, Fluid (supercritical or subcritical phases), x2 = 0.214	638 ± 4
12580 kPa, Fluid (supercritical or subcritical phases), x2 = 0.87	687 ± 4
12760 kPa, Fluid (supercritical or subcritical phases), x2 = 0.901	686 ± 4
12790 kPa, Fluid (supercritical or subcritical phases), x2 = 0.916	687 ± 4
13000 kPa, Fluid (supercritical or subcritical phases), x2 = 0.901	690 ± 4
13060 kPa, Fluid (supercritical or subcritical phases), x2 = 0.791	721 ± 5
13280 kPa, Fluid (supercritical or subcritical phases), x2 = 0.901	695 ± 4
13290 kPa, Fluid (supercritical or subcritical phases), x2 = 0.87	695 ± 4
13530 kPa, Fluid (supercritical or subcritical phases), x2 = 0.901	698 ± 4
13560 kPa, Fluid (supercritical or subcritical phases), x2 = 0.36	659 ± 4
13800 kPa, Fluid (supercritical or subcritical phases), x2 = 0.671	749 ± 5
13800 kPa, Fluid (supercritical or subcritical phases), x2 = 0.901	701 ± 4
13860 kPa, Fluid (supercritical or subcritical phases), x2 = 0.214	640 ± 4
13860 kPa, Fluid (supercritical or subcritical phases), x2 = 0.916	705 ± 4
14040 kPa, Fluid (supercritical or subcritical phases), x2 = 0.87	704 ± 4
14050 kPa, Fluid (supercritical or subcritical phases), x2 = 0.901	705 ± 4
14440 kPa, Fluid (supercritical or subcritical phases), x2 = 0.901	712 ± 4
14470 kPa, Fluid (supercritical or subcritical phases), x2 = 0.916	715 ± 4
14510 kPa, Fluid (supercritical or subcritical phases), x2 = 0.791	732 ± 5
14700 kPa, Fluid (supercritical or subcritical phases), x2 = 0.901	714 ± 4
14730 kPa, Fluid (supercritical or subcritical phases), x2 = 0.87	713 ± 4
14810 kPa, Fluid (supercritical or subcritical phases), x2 = 0.36	662 ± 4
15220 kPa, Fluid (supercritical or subcritical phases), x2 = 0.214	642 ± 4
Liquid, Other PVT measurement, x2 = 0.214	603 ± 2
Liquid, Other PVT measurement, x2 = 0.36	632 ± 2
Liquid, Other PVT measurement, x2 = 0.671	702 ± 2
Liquid, Other PVT measurement, x2 = 0.791	651 ± 2
Liquid, Other PVT measurement, x2 = 0.87	573 ± 2
Liquid, Other PVT measurement, x2 = 0.901	511 ± 2
